{"source": "ChEMBL document CHEMBL3774387", "about": "“Synthesis and anticancer evaluation of spermatinamine analogues” (Bioorg Med Chem Lett, 2016)", "key": {"MCF7 [1]": {"test_system": "MCF7", "assay": "Cytotoxicity against human MCF7 cells assessed as viable cells after 48 hrs by MTT assay", "assay_type": "functional, cell-based", "details": "MCF7, 48 h"}, "HeLa [2]": {"test_system": "HeLa", "assay": "Cytotoxicity against human HeLa cells assessed as viable cells after 48 hrs by MTT assay", "assay_type": "functional, cell-based"}, "[3]": {"assay": "Cytotoxicity against human DU145 cells assessed as viable cells after 48 hrs by MTT assay", "assay_type": "functional, cell-based", "details": "DU-145, 48 h"}, "[4]": {"assay": "Cytotoxicity against human DU145 cells assessed as viable cells after 24 hrs by MTT assay", "assay_type": "functional, cell-based", "details": "DU-145, 24 h"}, "HeLa [5]": {"test_system": "HeLa", "assay": "Cytotoxicity against human HeLa cells assessed as viable cells after 24 hrs by MTT assay", "assay_type": "functional, cell-based"}, "MCF7 [6]": {"test_system": "MCF7", "assay": "Cytotoxicity against human MCF7 cells assessed as viable cells after 24 hrs by MTT assay", "assay_type": "functional, cell-based", "details": "MCF7, 24 h"}, "HeLa [7]": {"test_system": "HeLa", "assay": "Cytotoxicity against human HeLa cells assessed as growth inhibition at 10 uM after 24 hrs by MTT assay (reference value: 0 to 4.4%)", "assay_type": "functional", "details": "read-out: GI"}, "MCF7 [8]": {"test_system": "MCF7", "assay": "Cytotoxicity against human MCF7 cells assessed as growth inhibition at 50 uM after 24 hrs by MTT assay (reference value: 2.7 to 9.3%)", "assay_type": "functional", "details": "MCF7, 24 h, read-out: GI"}, "HeLa [9]": {"test_system": "HeLa", "assay": "Cytotoxicity against human HeLa cells assessed as growth inhibition at 1.25 uM after 24 hrs by MTT assay (reference value: 0 to 4.4%)", "assay_type": "functional", "details": "read-out: GI"}, "MCF7 [10]": {"test_system": "MCF7", "assay": "Cytotoxicity against human MCF7 cells assessed as growth inhibition at 100 uM after 24 hrs by MTT assay (reference value: 2.7 to 9.3%)", "assay_type": "functional", "details": "MCF7, 24 h, read-out: GI"}, "[11]": {"assay": "Cytotoxicity against human DU145 cells assessed as growth inhibition at 25 uM after 24 hrs by MTT assay (reference value: 1.2 to 7.8%)", "assay_type": "functional", "details": "DU-145, 24 h, read-out: GI"}, "HeLa [12]": {"test_system": "HeLa", "assay": "Cytotoxicity against human HeLa cells assessed as growth inhibition at 50 uM after 24 hrs by MTT assay (reference value: 0 to 4.4%)", "assay_type": "functional", "details": "read-out: GI"}, "MCF7 [13]": {"test_system": "MCF7", "assay": "Cytotoxicity against human MCF7 cells assessed as growth inhibition at 1.25 uM after 24 hrs by MTT assay (reference value: 2.7 to 9.3%)", "assay_type": "functional", "details": "MCF7, 24 h, read-out: GI"}, "MCF7 [14]": {"test_system": "MCF7", "assay": "Cytotoxicity against human MCF7 cells assessed as growth inhibition at 25 uM after 24 hrs by MTT assay (reference value: 2.7 to 9.3%)", "assay_type": "functional", "details": "MCF7, 24 h, read-out: GI"}, "HeLa [15]": {"test_system": "HeLa", "assay": "Cytotoxicity against human HeLa cells assessed as growth inhibition at 25 uM after 24 hrs by MTT assay (reference value: 0 to 4.4%)", "assay_type": "functional", "details": "read-out: GI"}, "MCF7 [16]": {"test_system": "MCF7", "assay": "Cytotoxicity against human MCF7 cells assessed as growth inhibition at 5 uM after 24 hrs by MTT assay (reference value: 2.7 to 9.3%)", "assay_type": "functional", "details": "MCF7, 24 h, read-out: GI"}, "[17]": {"assay": "Cytotoxicity against human DU145 cells assessed as growth inhibition at 2.5 uM after 24 hrs by MTT assay (reference value: 1.2 to 7.8%)", "assay_type": "functional", "details": "DU-145, 24 h, read-out: GI"}, "MCF7 [18]": {"test_system": "MCF7", "assay": "Cytotoxicity against human MCF7 cells assessed as growth inhibition at 2.5 uM after 24 hrs by MTT assay (reference value: 2.7 to 9.3%)", "assay_type": "functional", "details": "MCF7, 24 h, read-out: GI"}, "HeLa [19]": {"test_system": "HeLa", "assay": "Cytotoxicity against human HeLa cells assessed as growth inhibition at 100 uM after 24 hrs by MTT assay (reference value: 0 to 4.4%)", "assay_type": "functional", "details": "read-out: GI"}, "[20]": {"assay": "Cytotoxicity against human DU145 cells assessed as growth inhibition at 100 uM after 24 hrs by MTT assay (reference value: 1.2 to 7.8%)", "assay_type": "functional", "details": "DU-145, 24 h, read-out: GI"}, "HeLa [21]": {"test_system": "HeLa", "assay": "Cytotoxicity against human HeLa cells assessed as growth inhibition at 2.5 uM after 24 hrs by MTT assay (reference value: 0 to 4.4%)", "assay_type": "functional", "details": "read-out: GI"}, "HeLa [22]": {"test_system": "HeLa", "assay": "Cytotoxicity against human HeLa cells assessed as growth inhibition at 5 uM after 24 hrs by MTT assay (reference value: 0 to 4.4%)", "assay_type": "functional", "details": "read-out: GI"}, "[23]": {"assay": "Cytotoxicity against human DU145 cells assessed as growth inhibition at 5 uM after 24 hrs by MTT assay (reference value: 1.2 to 7.8%)", "assay_type": "functional", "details": "DU-145, 24 h, read-out: GI"}, "[24]": {"assay": "Cytotoxicity against human DU145 cells assessed as growth inhibition at 1.25 uM after 24 hrs by MTT assay (reference value: 1.2 to 7.8%)", "assay_type": "functional", "details": "DU-145, 24 h, read-out: GI"}, "[25]": {"assay": "Cytotoxicity against human DU145 cells assessed as growth inhibition at 50 uM after 24 hrs by MTT assay (reference value: 1.2 to 7.8%)", "assay_type": "functional", "details": "DU-145, 24 h, read-out: GI"}, "[26]": {"assay": "Cytotoxicity against human DU145 cells assessed as growth inhibition at 10 uM after 24 hrs by MTT assay (reference value: 1.2 to 7.8%)", "assay_type": "functional", "details": "DU-145, 24 h, read-out: GI"}, "MCF7 [27]": {"test_system": "MCF7", "assay": "Cytotoxicity against human MCF7 cells assessed as growth inhibition at 10 uM after 24 hrs by MTT assay (reference value: 2.7 to 9.3%)", "assay_type": "functional", "details": "MCF7, 24 h, read-out: GI"}, "MCF7 [28]": {"test_system": "MCF7", "assay": "Cytotoxicity against human MCF7 cells assessed as viable cells after 24 hrs by Solid plate-based spot culture growth inhibition assay", "assay_type": "functional, cell-based", "details": "MCF7, 24 h"}, "[29]": {"assay": "Cytotoxicity against human DU145 cells assessed as viable cells after 24 hrs by Solid plate-based spot culture growth inhibition assay", "assay_type": "functional, cell-based", "details": "DU-145, 24 h"}}, "data": [{"smiles": "COc1c(Br)cc(C/C(=N\\O)C(=O)NCCCCCNC(=O)/C(Cc2cc(Br)c(OC)c(Br)c2)=N/O)cc1Br", "values": [{"measurement": "IC50", "setting": "MCF7 [1]", "value": "> 100", "unit": "µM"}, {"measurement": "IC50", "setting": "HeLa [2]", "value": "> 100", "unit": "µM"}, {"measurement": "IC50", "setting": "[3]", "value": "> 100", "unit": "µM"}, {"measurement": "IC50", "setting": "[4]", "value": "> 100", "unit": "µM"}, {"measurement": "IC50", "setting": "HeLa [5]", "value": "> 100", "unit": "µM"}, {"measurement": "IC50", "setting": "MCF7 [6]", "value": "> 100", "unit": "µM"}]}, {"smiles": "COc1c(Br)cc(C/C(=N\\OCc2ccccc2)C(=O)NCCNCCNC(=O)/C(Cc2cc(Br)c(OC)c(Br)c2)=N/OCc2ccccc2)cc1Br", "values": [{"measurement": "IC50", "setting": "MCF7 [1]", "value": "> 100", "unit": "µM"}, {"measurement": "IC50", "setting": "HeLa [2]", "value": "> 100", "unit": "µM"}, {"measurement": "IC50", "setting": "[3]", "value": "> 100", "unit": "µM"}, {"measurement": "IC50", "setting": "[4]", "value": "> 100", "unit": "µM"}, {"measurement": "IC50", "setting": "HeLa [5]", "value": "> 100", "unit": "µM"}, {"measurement": "IC50", "setting": "MCF7 [6]", "value": "> 100", "unit": "µM"}]}, {"smiles": "CO/N=C(\\Cc1cc(Br)c(OC)c(Br)c1)C(=O)NCCCNCCCCNCCCNC(=O)/C(Cc1cc(Br)c(OC)c(Br)c1)=N/OC", "values": [{"measurement": "inhibition of growth at 10 µM", "setting": "HeLa [7]", "value": 20.2, "unit": "%"}, {"measurement": "inhibition of growth at 50 µM", "setting": "MCF7 [8]", "value": 98.4, "unit": "%"}, {"measurement": "inhibition of growth at 1.25 µM", "setting": "HeLa [9]", "value": 0, "unit": "%"}, {"measurement": "IC50", "setting": "MCF7 [1]", "value": 19.1, "unit": "µM"}, {"measurement": "inhibition of growth at 100 µM", "setting": "MCF7 [10]", "value": 98.1, "unit": "%"}, {"measurement": "inhibition of growth at 25 µM", "setting": "[11]", "value": 55, "unit": "%"}, {"measurement": "IC50", "setting": "HeLa [2]", "value": 25, "unit": "µM"}, {"measurement": "inhibition of growth at 50 µM", "setting": "HeLa [12]", "value": 97.8, "unit": "%"}, {"measurement": "IC50", "setting": "[3]", "value": 27.7, "unit": "µM"}, {"measurement": "inhibition of growth at 1.25 µM", "setting": "MCF7 [13]", "value": 15.4, "unit": "%"}, {"measurement": "inhibition of growth at 25 µM", "setting": "MCF7 [14]", "value": 55.5, "unit": "%"}, {"measurement": "inhibition of growth at 25 µM", "setting": "HeLa [15]", "value": 70.4, "unit": "%"}, {"measurement": "IC50", "setting": "[4]", "value": 26.2, "unit": "µM"}, {"measurement": "inhibition of growth at 5 µM", "setting": "MCF7 [16]", "value": 22.3, "unit": "%"}, {"measurement": "inhibition of growth at 2.5 µM", "setting": "[17]", "value": 24.1, "unit": "%"}, {"measurement": "inhibition of growth at 2.5 µM", "setting": "MCF7 [18]", "value": 20.8, "unit": "%"}, {"measurement": "IC50", "setting": "HeLa [5]", "value": 26.3, "unit": "µM"}, {"measurement": "inhibition of growth at 100 µM", "setting": "HeLa [19]", "value": 97.4, "unit": "%"}, {"measurement": "IC50", "setting": "MCF7 [6]", "value": 24.8, "unit": "µM"}, {"measurement": "inhibition of growth at 100 µM", "setting": "[20]", "value": 98.7, "unit": "%"}, {"measurement": "inhibition of growth at 2.5 µM", "setting": "HeLa [21]", "value": 0, "unit": "%"}, {"measurement": "inhibition of growth at 5 µM", "setting": "HeLa [22]", "value": 0, "unit": "%"}, {"measurement": "inhibition of growth at 5 µM", "setting": "[23]", "value": 26.1, "unit": "%"}, {"measurement": "inhibition of growth at 1.25 µM", "setting": "[24]", "value": 24.6, "unit": "%"}, {"measurement": "inhibition of growth at 50 µM", "setting": "[25]", "value": 99.2, "unit": "%"}, {"measurement": "inhibition of growth at 10 µM", "setting": "[26]", "value": 34.3, "unit": "%"}, {"measurement": "inhibition of growth at 10 µM", "setting": "MCF7 [27]", "value": 33.1, "unit": "%"}]}, {"smiles": "COc1c(Br)cc(C/C(=N\\OCc2ccccc2)C(=O)NCCCCCNC(=O)/C(Cc2cc(Br)c(OC)c(Br)c2)=N/OCc2ccccc2)cc1Br", "values": [{"measurement": "IC50", "setting": "MCF7 [1]", "value": "> 100", "unit": "µM"}, {"measurement": "IC50", "setting": "HeLa [2]", "value": "> 100", "unit": "µM"}, {"measurement": "IC50", "setting": "[3]", "value": "> 100", "unit": "µM"}, {"measurement": "IC50", "setting": "[4]", "value": "> 100", "unit": "µM"}, {"measurement": "IC50", "setting": "HeLa [5]", "value": "> 100", "unit": "µM"}, {"measurement": "IC50", "setting": "MCF7 [6]", "value": "> 100", "unit": "µM"}]}, {"smiles": "COc1c(Br)cc(C/C(=N\\O)C(=O)NCCCN(C)CCCCN(C)CCCNC(=O)/C(Cc2cc(Br)c(OC)c(Br)c2)=N/O)cc1Br", "values": [{"measurement": "IC50", "setting": "MCF7 [28]", "value": 1.6, "unit": "µM"}, {"measurement": "IC50", "setting": "[29]", "value": 1.6, "unit": "µM"}]}]}
